Reference: patent US20210300926A1, “NEW BETA-LACTAMASE INHIBITORS TARGETING GRAM NEGATIVE BACTERIA” (priority 2017, published 2021)

Tests used:
TEM-1 = target: T1, TEM-1 (Escherichia coli, UniProt P62593); experiment: Kinetic parameters of β-lactamase carbamoylation/de-carbamoylation (nitrocefin), TEM-1; assay type: biochemical; details: 20° C., nitrocefin 100 μM, MES pH 6.4
T1 construct: fragments of the β-lactamase genes encoding soluble enzymes, i.e. devoid of the signal peptides; made in house; host or cells: E. coli BL21 (DE3)
T1 sequence (P62593 24-286 limits assumed): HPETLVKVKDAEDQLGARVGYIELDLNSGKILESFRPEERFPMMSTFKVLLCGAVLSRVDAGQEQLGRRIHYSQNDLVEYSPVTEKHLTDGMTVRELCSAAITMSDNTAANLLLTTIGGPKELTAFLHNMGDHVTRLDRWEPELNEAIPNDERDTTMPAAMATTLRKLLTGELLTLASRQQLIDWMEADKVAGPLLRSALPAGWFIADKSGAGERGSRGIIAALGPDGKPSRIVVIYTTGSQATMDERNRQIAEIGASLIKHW
Description: (§1) Plasmid and strain construction. For antibiotic susceptibility testing, the R-lactamase genes were cloned into the vector pTRC-99k, which is a derivative of pTRC99a (Pharmacia) obtained by replacing the β-lactamase resistance gene by a kanamycin resistance gene (Km, lacl, pTRC promoter, oriVcolEl; D. Mengin-Lecreulx, unpublished). Recombinant plasmids were introduced by electrotransformation into Escherichia coli Top10. For β-lactamase production, fragments of the β-lactamase genes encoding soluble enzymes, i.e. devoid of the signal peptides, were cloned into the vector pET-TEV generating translational fusions with a vector-encoded N-terminal 6×His Tag followed by a TEV cleavage site ([…]) (1).
(§2) Production and purification of β-lactamases. E. coli BL21 (DE3) harboring recombinant plasmids were grown in brain heart infusion (BHI) broth supplemented with kanamycin (50 μg/ml) at 37° C. under vigorous shaking until the optical density at 600 nm (OD600) reached 0.8. Isopropyl β-D-1-thiogalactopyranoside IPTG (0.5 mM) was added and incubation was continued at 16° C. for 18 h. Bacteria were harvested by centrifugation, re-suspended in 25 mM Tris-HCl (pH 7.5) containing 300 mM NaCl (buffer A) and lysed by sonication. The enzymes were purified from clarified lysates by affinity chromatography (NiNTA agarose, Sigma-Aldrich) and size exclusion chromatography in buffer A (Superdex 200 HL26/60, Amersham Pharmacia Biotech). Protein concentration was determined by the Biorad protein assay using bovine serum albumin as a standard.
(§3) Determination of kinetic parameters. […] Briefly, the initial velocity (vi) was determined by spectrophotometry for various concentrations of β-lactams [S] and a fixed concentration of β-lactamase [E]. The values of vi were plotted as a function of [S]. The kinetic constants Km and kcat were determined by fitting the equation […] to the resulting curve. The molecular extinction coefficient was 14,600 M^−1 cm^−1 at 486 nm for nitrocefin. […] Kinetics constants were deduced from a minimum of 6 progress curves obtained in a minimum of two independent experiments.

[1] = system: E. coli Top10 producing KPC-2; assay type: cell-based, Escherichia coli; details: summary of Table 1
[2] = system: E. coli Top10 producing CTX-M15; experiment: MIC determination by microdilution, E. coli Top10 producing CTX-M15; assay type: cell-based, Escherichia coli; details: E. coli Top10 producing CTX-M-15; summary of Table 1
Description: as §1
(§4) MIC determination. MICs of β-lactams were determined by the microdilution method in MH broth according to Clinical and Laboratory Standards Institute (CLSI) recommendations (12). Diazabicyclooctane were used at a fixed concentration of 15 μM (4 μg/ml for avibactam). Clavulanate was tested at 4 μg/ml. IPTG (500 μM) was added to the microdilution plates to induce production of the -lactamase. The precultures were grown in BHI broth containing IPTG (500 μM) and kanamycin (50 μg/ml) for plasmid maintenance. Reported MICs are the medians from five biological repeats obtained in two independent experiments.

KPC-2 = target: T2, KPC-2 (Klebsiella pneumoniae, UniProt Q9F663); experiment: Kinetic parameters of β-lactamase carbamoylation/de-carbamoylation (nitrocefin), KPC-2; assay type: biochemical; details: for Carbamoylation efficacy of β-lactamases by diazabicyclooctanes / De-carbamoylation rate constant k−2 for β-lactamase-diazabicyclooctane adducts: KPC-2, 20° C., nitrocefin 100 μM, MES pH 6.4; for activity against KPC-2 (in words): summary of Tables 1 and 2
T2 construct: fragments of the β-lactamase genes encoding soluble enzymes, i.e. devoid of the signal peptides; 6xHis tag followed by TEV cleavage site ([…]) (N); made in house; host or cells: E. coli BL21 (DE3)
T2 sequence (Q9F663 25-293 limits assumed): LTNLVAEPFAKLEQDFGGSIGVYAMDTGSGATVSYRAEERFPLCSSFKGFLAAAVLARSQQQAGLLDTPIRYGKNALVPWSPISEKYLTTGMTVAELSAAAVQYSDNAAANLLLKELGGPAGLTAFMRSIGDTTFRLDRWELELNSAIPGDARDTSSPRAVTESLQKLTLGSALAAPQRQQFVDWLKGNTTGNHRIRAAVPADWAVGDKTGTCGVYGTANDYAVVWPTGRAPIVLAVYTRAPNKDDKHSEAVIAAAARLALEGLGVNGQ
Description: as §1, §2, §3

AmpCEclo = target: T3, AmpCEclo (Enterobacter cloacae, UniProt P05364); assay type: biochemical; details: AmpCEclo; 20° C., nitrocefin 100 μM, MES pH 6.4
T3 construct: fragments of the β-lactamase genes encoding soluble enzymes, i.e. devoid of the signal peptides; 6xHis tag followed by TEV cleavage site ([…]) (N); made in house; host or cells: E. coli BL21 (DE3)
T3 sequence (P05364 21-381): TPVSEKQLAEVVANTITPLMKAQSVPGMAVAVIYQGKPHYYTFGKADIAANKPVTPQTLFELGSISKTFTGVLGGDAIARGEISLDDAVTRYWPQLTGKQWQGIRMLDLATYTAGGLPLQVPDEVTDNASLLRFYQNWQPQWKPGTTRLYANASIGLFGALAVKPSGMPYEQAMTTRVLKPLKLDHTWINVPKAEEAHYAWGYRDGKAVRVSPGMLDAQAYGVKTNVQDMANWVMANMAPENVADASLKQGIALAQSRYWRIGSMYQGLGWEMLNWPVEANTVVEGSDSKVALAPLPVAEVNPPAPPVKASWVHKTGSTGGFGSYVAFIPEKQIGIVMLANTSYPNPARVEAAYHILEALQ
Experimental: as §2, §3

CTX-M-15 = target: T4, CTX-M-15 (Escherichia coli, UniProt Q9EXV5); experiment: Kinetic parameters of β-lactamase carbamoylation/de-carbamoylation (nitrocefin), CTX-M-15; assay type: biochemical; details: for Carbamoylation efficacy of β-lactamases by diazabicyclooctanes / De-carbamoylation rate constant k−2 for β-lactamase-diazabicyclooctane adducts: CTX-M-15, 20° C., nitrocefin 100 μM, MES pH 6.4; for activity against CTX-M-15 (in words): summary of Tables 1 and 2
T4 construct: fragments of the β-lactamase genes encoding soluble enzymes, i.e. devoid of the signal peptides; made in house; host or cells: E. coli BL21 (DE3)
T4 sequence (Q9EXV5 entry or part of it): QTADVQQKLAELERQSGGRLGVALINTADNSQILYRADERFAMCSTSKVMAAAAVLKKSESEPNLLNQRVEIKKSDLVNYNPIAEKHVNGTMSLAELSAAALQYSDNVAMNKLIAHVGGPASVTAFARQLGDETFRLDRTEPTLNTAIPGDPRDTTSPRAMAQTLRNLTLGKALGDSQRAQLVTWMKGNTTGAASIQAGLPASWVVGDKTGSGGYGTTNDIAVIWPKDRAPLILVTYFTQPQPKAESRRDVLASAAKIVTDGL
Description: as §1, §2, §3

OXA-48 = target: T5, OXA-48 (Klebsiella pneumoniae, UniProt Q6XEC0); experiment: Kinetic parameters of β-lactamase carbamoylation/de-carbamoylation (nitrocefin), OXA-48; assay type: biochemical; details: OXA-48; 20° C., nitrocefin 100 μM, MES pH 6.4; NA = no inhibition at 100 μM
T5 construct: fragments of the β-lactamase genes encoding soluble enzymes, i.e. devoid of the signal peptides; 6xHis tag followed by TEV cleavage site ([…]) (N); made in house; host or cells: E. coli BL21 (DE3)
T5 sequence (Q6XEC0 23-265 limits assumed): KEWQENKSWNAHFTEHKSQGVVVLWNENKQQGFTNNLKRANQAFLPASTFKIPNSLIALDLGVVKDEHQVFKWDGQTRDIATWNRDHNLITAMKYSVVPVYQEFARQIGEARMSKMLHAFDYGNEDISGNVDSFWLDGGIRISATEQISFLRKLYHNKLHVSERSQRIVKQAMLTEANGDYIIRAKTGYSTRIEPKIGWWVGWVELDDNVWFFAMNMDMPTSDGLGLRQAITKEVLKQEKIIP
Description: as §1, §2, §3

E. coli Top10 = experiment: MIC determination by microdilution, E. coli Top10 without β-lactamase (None); assay type: cell-based; details: Escherichia coli; Ertapenem alone; E. coli Top10, β-lactamase None; read-out: MIC of β-lactam, inhibitor None
Description: as §1, §4

[3] = system: E. coli Top10 producing OXA-48; experiment: MIC determination by microdilution, E. coli Top10 producing OXA-48; assay type: cell-based; details: Escherichia coli, read-out: MIC of β-lactam, inhibitor None
Description: as §1, §4

Structure (SMILES) | Carbamoylation efficacy of β-lactamases by diazabicyclooctanes (TEM-1) | De-carbamoylation rate constant k−2 for β-lactamase-diazabicyclooctane adducts (TEM-1) | reduction in the MICs of β-lactams (in words) [1] | reduction in the MICs of β-lactams (in words) [2] | Carbamoylation efficacy of β-lactamases by diazabicyclooctanes (KPC-2) | De-carbamoylation rate constant k−2 for β-lactamase-diazabicyclooctane adducts (KPC-2) | Carbamoylation efficacy of β-lactamases by diazabicyclooctanes (AmpCEclo) | De-carbamoylation rate constant k−2 for β-lactamase-diazabicyclooctane adducts (AmpCEclo) | Carbamoylation efficacy of β-lactamases by diazabicyclooctanes (CTX-M-15) | De-carbamoylation rate constant k−2 for β-lactamase-diazabicyclooctane adducts (CTX-M-15) | activity against KPC-2 (in words) (KPC-2) | Carbamoylation efficacy of β-lactamases by diazabicyclooctanes (OXA-48) | De-carbamoylation rate constant k−2 for β-lactamase-diazabicyclooctane adducts (OXA-48) | activity against CTX-M-15 (in words) (CTX-M-15) | MIC (E. coli Top10) [µg/mL] | MIC [3] [µg/mL]
COCc1cn(C[C@@H]2CC[C@@H]3CN2C(=O)N3OS(=O)(=O)[O-])nn1.[Na+] [Compound 1a.i13] | (8.3 ± 0.5) × 10^2 M^−1 s^−1 | (1.6 ± 0.5) × 10^−3 s−1 | Minor reduction | Minor reduction | (1.8 ± 0.2) × 10^1 M^−1 s^−1 | (1.2 ± 0.1) × 10^−3 s−1 | (1.5 ± 0.5) × 10^1 M^−1 s^−1 | (1.3 ± 0.6) × 10^−3 s−1 | (1.2 ± 0.4) × 10^2 M^−1 s^−1 | (1.3 ± 1.3) × 10^−3 s−1 |  |  |  |  |  | 
O=C(O)CCc1cn(C[C@@H]2CC[C@@H]3CN2C(=O)N3OS(=O)(=O)[O-])nn1.[Na+] [Compound 1a.i14] | (7.2 ± 0.6) × 10^2 M^−1 s^−1 | (8.2 ± 8.9) × 10^−4 s−1 | Minor reduction | Minor reduction | (7.0 ± 0.8) × 10^1 M^−1 s^−1 | (7.9 ± 1.7) × 10^−4 s−1 | (9.9 ± 0.9) × 10^1 M^−1 s^−1 | (1.6 ± 0.2) × 10^−3 s−1 | (1.1 ± 0.1) × 10^2 M^−1 s^−1 | (3.9 ± 0.8) × 10^−4 s−1 |  |  |  |  |  | 
O=C1N2C[C@@H](CC[C@H]2Cn2cc(-c3ccccc3)nn2)N1OS(=O)(=O)[O-].[Na+] [Compound 1a.i16] | (4.7 ± 0.1) × 10^3 M^−1 s^−1 | (4.2 ± 0.6) × 10^−4 s−1 |  |  | (9.3 ± 0.4) × 10^2 M^−1 s^−1 | (8.8 ± 1.2) × 10^−4 s−1 | (2.0 ± 0.0) × 10^2 M^−1 s^−1 | (2.3 ± 0.1) × 10^−3 s−1 | (6.9 ± 0.2) × 10^3 M^−1 s^−1 | (3.3 ± 0.5) × 10^−4 s−1 | displayed activity | (1.1 ± 0.3) × 10^2 M^−1 s^−1 | (1.7 ± 0.1) × 10^−3 s−1 | displayed activity |  | 
O=C1N2C[C@@H](CC[C@H]2Cn2cc(-c3cccnc3)nn2)N1OS(=O)(=O)O [Compound 1a.i] | (1.4 ± 0.1) × 10^3 M^−1 s^−1 | (2.1 ± 0.2) × 10^−3 s−1 |  |  | (5.5 ± 0.1) × 10^2 M^−1 s^−1 | (3.0 ± 0.1) × 10^−3 s−1 | (8.5 ± 0.7) × 10^1 M^−1 s^−1 | (2.1 ± 0.5) × 10^−3 s−1 | (1.7 ± 0.4) × 10^3 M^−1 s^−1 | (6.4 ± 0.8) × 10^−4 s−1 | displayed activity |  |  | displayed activity |  | 
C[Si](C)(C)c1cn(C[C@@H]2CC[C@@H]3CN2C(=O)N3OS(=O)(=O)O)nn1 [Compound 2a.i] | (3.7 ± 0.5) × 10^2 M^−1 s^−1 | (2.9 ± 0.9) × 10^−3 s−1 | Minor reduction | Minor reduction | (9.7 ± 0.8) × 10^1 M^−1 s^−1 | (2.9 ± 0.2) × 10^−3 s−1 | (2.4 ± 0.1) × 10^1 M^−1 s^−1 | (1.3 ± 0.9) × 10^−3 s−1 | (4.0 ± 0.1) × 10^2 M^−1 s^−1 | (3.9 ± 0.9) × 10^−4 s−1 |  |  |  |  |  | 
C[C@@H](O)[C@H]1C(=O)N2C(C(=O)O)=C(S[C@@H]3CN[C@H](C(=O)Nc4cccc(C(=O)O)c4)C3)[C@H](C)[C@H]12 [Ertapenem] |  |  |  |  |  |  |  |  |  |  |  |  |  |  | < 0.03 | 16
